These results are taken from PubChem BioAssay (NCI).

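Grown in 96-well plates, cells were treated for 48 hours with each compound at five concentrations. Insufficient inhibition: endpoint recorded as highest concentration tested. Abbreviation: GI50, concentration required for 50% inhibition of growth. TGI marks complete inhibition of growth.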

What all share (test): inhibition of tumour cell growth, NCI panel, 48 h
Test [1] deals with A498 renal.
Test [2] concerns A549 NSCLC.
Test [3] deals with BT-549 breast.
In test [4] the test system is MDA-MB-435.
In test [5] the test system is NCI-H226 lung.
For test [6], the system named is RPMI-8226 leukemia.
Test [7] relates to SF-268 CNS.
Test [8] relates to SK-MEL-28 melanoma.

For the molecule `COc1ccc2[nH]cc(-c3nc(-c4c[nH]c5ncccc45)cs3)c2c1`, the GI50 was 1.16 µM in test [1]; 3.4 µM in test [2]; 5.35 µM in test [3]; 5.87 µM in test [4]; 3.93 µM in test [5]; 4.76 µM in test [6]. The GI50 in test [7] was 6.66 µM; in test [8], 6.43 µM. Moreover, the TGI in test [1], in test [2], in test [3], in test [4], in test [5] and in test [6] was greater than 100 µM each time. Also, the TGI in test [7] and in test [8] was greater than 100 µM throughout.
Consider `C[C@H]1Oc2cc(cnc2N)-c2c(nn(C)c2C#N)CN(C)C(=O)c2ccc(F)cc21`, for which the GI50 in test [1] was 0.452 µM; in test [2], 25.4 µM; in test [3], greater than 100 µM; in test [4], 48.6 µM; in test [5] it was 40.8 µM; in test [6], greater than 100 µM. The GI50 is 27.1 µM in test [7] and 50.3 µM in test [8]. The TGI is greater than 30.6 µM in test [1]; greater than 100 µM in test [2]; greater than 100 µM in test [3]; greater than 100 µM in test [4]; greater than 100 µM in test [5]; greater than 100 µM in test [6]. Moreover, the TGI in test [7] and in test [8] was greater than 100 µM in each case.
With `O=C(c1ccc(Cl)cc1)c1cnc(Nc2ccccc2Cl)s1`, the TGI in test [1] is 27.3 µM; in test [2], 60.3 µM; in test [3] it was 51.2 µM; in test [4] it was greater than 100 µM; in test [5] it was greater than 64.3 µM; in test [6] it was greater than 100 µM. Also, the figures for the TGI in test [7] and in test [8] were 57.6 µM and 23.4 µM, respectively.
For the molecule `Nc1c(C(=O)Nc2cccc(Br)c2)sc2nc3c(cc12)C(=O)CCC3`, the GI50 is 0.189 µM in test [1]; 0.5 µM in test [2]; 3.1 µM in test [3]; 0.0915 µM in test [4]; 16.8 µM in test [5]; greater than 49.9 µM in test [6]. In addition, the GI50 in test [7] was 19.5 µM. Also, the TGI in test [1] is 8.33 µM; in test [2], greater than 100 µM; in test [3], greater than 100 µM; in test [4] it was 0.348 µM; in test [5], greater than 100 µM; in test [6], greater than 100 µM. For the same molecule, the TGI in test [7] and in test [8] was greater than 100 µM in each case.
As for `CC1=CC(=O)[C@@H](O)[C@]2(C)[C@H]3[C@@]4(O)OC[C@]35[C@H]([C@@H](C)[C@H]4O)[C@@H](O)C(=O)O[C@@H]5C[C@@H]12`, the TGI was 4.45 µM in test [1]; 15.5 µM in test [2]; 5.17 µM in test [3]; 1.73 µM in test [4]; 0.694 µM in test [5]; greater than 100 µM in test [6]. Moreover, the TGI in test [7] turned out to be 0.778 µM; in test [8] it was 0.691 µM.
As for `CC1(C)OCCn2c1nc1c(N3CCOCC3)nc(-c3cnc(N)nc3)nc12`, the GI50 in test [1] was 0.133 µM; in test [2], 0.283 µM; in test [3], 0.183 µM; in test [4] it was 0.27 µM; in test [5] it was 0.227 µM; in test [6], 2.14 µM. The GI50 was 0.426 µM in test [7] and 0.231 µM in test [8]. The TGI in test [1] was 0.627 µM; in test [2], 4.4 µM; in test [3], 2.91 µM; in test [5], 8.75 µM; in test [6], 12.5 µM; in test [7], greater than 100 µM. Moreover, the TGI in test [8] is 4.08 µM.
Take `Cc1[nH]c2ccccc2c1-c1cc(-c2cc(-c3c(C)[nH]c4ccccc34)on2)no1`: the TGI was greater than 100 µM in test [1]; greater than 100 µM in test [2]; greater than 100 µM in test [3]; 80.6 µM in test [4]; greater than 100 µM in test [5]; greater than 100 µM in test [6]. Besides, the TGI in test [7] and in test [8] was greater than 100 µM each time.
On to `C=CCc1cccc(/C=N/NC(=O)CN2CCN(Cc3ccccc3)CC2)c1O`, for which the GI50 in test [1] is 4.86 µM; in test [2], 3.34 µM; in test [3] it was 2.84 µM; in test [4], 2.86 µM; in test [5], 2.64 µM; in test [6], 1.47 µM. Further, the GI50 in test [7] was 1.99 µM; in test [8], 2.43 µM. Also, the TGI in test [1] was 18.2 µM; in test [2] it was 16.4 µM; in test [3], 15.3 µM; in test [4] it was 13.3 µM; in test [5] it was 14 µM; in test [6] it was 12.7 µM. Further, the figures for the TGI in test [7] and in test [8] were 16.4 µM and 15.5 µM, respectively.
Consider `N#Cc1c(-c2ccc(F)cc2)c(-c2ccc(F)cc2)nn(CCO)c1=O`, for which the TGI in test [1] was greater than 54.2 µM; in test [2] it was greater than 100 µM; in test [3] it was 39.9 µM; in test [4] it was 0.608 µM; in test [5], greater than 4.64 µM; in test [6], greater than 100 µM. The TGI in test [7] and in test [8] was greater than 100 µM in each case.
For the molecule `COc1cccc2c1C(=O)c1c(O)c3c(c(O)c1C2=O)CC(O)(/C(C)=N/NC(=O)CCC(=O)N/N=C(\C)C1(O)Cc2c(O)c4c(c(O)c2C(OC2CC(N)C(O)C(C)O2)C1)C(=O)c1c(OC)cccc1C4=O)CC3OC1CC(N)C(O)C(C)O1` (configuration not stated), the GI50 in test [1] was 0.161 µM; in test [2] it was 0.414 µM; in test [3] it was 0.671 µM; in test [4], 0.552 µM; in test [5], 0.324 µM; in test [6], 0.209 µM. The GI50 is 0.259 µM in test [7] and 0.371 µM in test [8]. Also, the TGI in test [1] was 0.939 µM; in test [2] it was 1.81 µM; in test [3], 2.27 µM; in test [4], 3.29 µM; in test [5] it was 1.39 µM; in test [6], 4.17 µM. Besides, the TGI is 8.11 µM in test [7] and 1.35 µM in test [8].
For the molecule `CCCn1c(N)c(C(=O)N/N=C(/C)c2cc3cccc(OC)c3o2)sc1=S`, the GI50 in test [1] was 65.4 µM; in test [2] it was 12.5 µM; in test [3] it was 77.5 µM; in test [4], 56.6 µM; in test [5] it was 45.2 µM; in test [6], 53.6 µM. Further, the GI50 in test [7] is 22.4 µM; in test [8], 49.7 µM. The TGI in test [1], in test [2], in test [3], in test [4], in test [5] and in test [6] was greater than 100 µM each time. Besides, the TGI in test [7] and in test [8] was greater than 100 µM each time.
